Source: PMC9127750, “Structure-based design of CDC42 effector interaction inhibitors for the treatment of cancer” (Cell reports, 2022)
“And” between values parts separate entries of the source, which are not always exact repeats. Equal entries are not always repeated.

Tested on: WM3248 melanoma cells, 486 antibodies
Assay: Reverse phase protein arrays (RPPA)
Type: cell-based, Human
Conditions: 5 uM
From the text: Pellets were snap frozen in liquid nitrogen and shipped to MD Anderson Cancer Center core RPPA facility for RPPA analysis (Table S5). Three biological replicates for each sample were generated.
Nomenclatures on the RPPA heatmaps: name_of_antibody.species_of_antibody.status_of_antibody. V - antibody validated; C - validation of antibody in progress; Q - antibody nonspecific; E – under evaluation; antibodies raised in M - mouse, G - goat, R - rabbit, or T - rat.

Compound: CN(C)c1cccc(Nc2cc(-c3ccccc3)nc(C3CCNCC3)n2)c1 [ARN22089, N1,N1-dimethyl-N3-(6-phenyl-2-(piperidin-4-yl)pyrimidin-4-yl)benzene-1,3-diamine]
- RPPA level IGF1R_pY1135_Y1136.R.V (single replicates): 0.923 and 1.035 and 1.147
- RPPA level IGFBP2.R.V (single replicates): 0.536 and 0.864 and 1.227
- RPPA level IGFBP3.M.V (single replicates): 0.749 and 0.955 and 1.168
- RPPA level IGFRb.R.C (single replicates): 0.930 and 1.171
- RPPA level IL.6.R.C (single replicates): 0.941 and 1.064 and 1.146
- RPPA level IMP3.R.C (single replicates): 0.986 and 0.965
- RPPA level INPP4b.R.C (single replicates): 1.116 and 0.899 and 0.832
- RPPA level IR.b.R.C (single replicates): 1.320 and 1.103
- RPPA level IRF.1.R.V (single replicates): 0.717 and 1.139 and 1.144
- RPPA level IRF.3.R.V (single replicates): 0.919 and 1.034
- RPPA level IRS1.R.V (single replicates): 0.981
- RPPA level IRS2.R.C (single replicates): 0.999 and 0.927 and 0.986
- RPPA level JAB1.M.C (single replicates): 1.009 and 0.971
- RPPA level JNK2.R.V (single replicates): 0.702 and 1.165 and 0.800
- RPPA level JNK_pT183_Y185.R.C (single replicates): 0.946 and 1.035 and 1.097
- RPPA level Jagged1.R.V (single replicates): 0.958 and 1.186 and 0.974
- RPPA level Jak2.R.V (single replicates): 0.877 and 1.121
- RPPA level KAP1.R.V (single replicates): 1.023 and 0.961 and 0.759
- RPPA level KEAP1.R.V (single replicates): 1.060 and 0.798 and 0.885
- RPPA level LAD1.R.V (single replicates): 0.906 and 1.221 and 0.985
- RPPA level LC3A.B.R.C (single replicates): 0.962 and 0.690
- RPPA level LCN2.R.V (single replicates): 2.079 and 0.667 and 0.750
- RPPA level LDHA.R.C (single replicates): 1.269 and 0.924 and 0.174
- RPPA level LRP6_pS1490.R.V (single replicates): 0.923 and 1.082 and 1.190
- RPPA level Lasu1.R.V (single replicates): 0.830 and 0.833
- RPPA level Lck.R.V (single replicates): 0.914 and 1.025 and 0.835
- RPPA level Lyn.R.V (single replicates): 0.857 and 0.712
- RPPA level MACC1.R.V (single replicates): 0.983 and 0.952 and 1.126
- RPPA level MAPK_pT202_Y204.R.C (single replicates): 0.962 and 0.989 and 1.287
- RPPA level MCT4.R.V (single replicates): 0.631 and 1.046 and 1.198
- RPPA level MDM2_pS166.R.V (single replicates): 0.981 and 1.059 and 0.658
- RPPA level MEK1.R.V (single replicates): 0.979 and 2.685
- RPPA level MEK1_pS217_S221.R.V (single replicates): 0.968 and 1.488 and 0.918
- RPPA level MEK2.R.V (single replicates): 1.028 and 1.188 and 0.905
- RPPA level MERIT40.R.C (single replicates): 0.976 and 0.913
- RPPA level MERIT40_pS29.R.V (single replicates): 0.986 and 0.944
- RPPA level METTL3.R.V (single replicates): 1.157 and 0.890 and 0.714
- RPPA level MIF.R.C (single replicates): 0.954 and 1.000
- RPPA level MIG6.R.V (single replicates): 1.004 and 0.977
- RPPA level MITF.R.V (single replicates): 1.035 and 0.897
- RPPA level MLH1.M.V (single replicates): 0.967 and 0.818
- RPPA level MLKL.R.V (single replicates): 0.948
- RPPA level MMP2.R.V (single replicates): 1.053 and 0.940 and 0.993
- RPPA level MMP14.R.V (single replicates): 0.806 and 0.852 and 1.235
- RPPA level MR1.M.C (single replicates): 0.985 and 1.126 and 0.989
- RPPA level MRAP.R.C (single replicates): 1.027 and 1.099 and 1.056
- RPPA level MSH2.R.C (single replicates): 0.981 and 0.975 and 0.839
- RPPA level MSH6.R.C (single replicates): 0.974 and 1.034 and 0.768
- RPPA level MSI2.R.C (single replicates): 1.007 and 0.996 and 1.009
- RPPA level MTCO1.M.V (single replicates): 1.026 and 0.959 and 0.846
- RPPA level MTSS1.M.C (single replicates): 0.922 and 1.002
- RPPA level Mcl.1.R.V (single replicates): 0.903 and 1.197 and 1.129
- RPPA level MelanA.R.C (single replicates): 0.929 and 1.064 and 1.083
- RPPA level Melanoma.gp100.R.C (single replicates): 0.903 and 1.116 and 1.163
- RPPA level Merlin.R.C (single replicates): 0.905 and 1.160 and 0.615
- RPPA level Midkine.R.V (single replicates): 1.000 and 0.968 and 1.034
- RPPA level Mitofusin.1.R.V (single replicates): 0.993 and 1.106 and 1.060
- RPPA level Mitofusin.2.R.V (single replicates): 0.878 and 0.979
- RPPA level Mnk1.R.V (single replicates): 1.011 and 1.102
- RPPA level mTOR.R.V (single replicates): 1.085 and 1.120 and 0.844
- RPPA level mTOR_pS2448.R.C (single replicates): 1.164 and 0.821
- RPPA p21.R.C (single replicates): 1.391 and 0.730 and 1.025
- RPPA p27.Kip1.R.C (single replicates): 1.014 and 0.921 and 0.908
- RPPA p27_pT157.R.C (single replicates): 0.998 and 1.050 and 0.780
- RPPA p27_pT198.R.V (single replicates): 0.905 and 1.281 and 1.122
- RPPA p38.MAPK.R.V (single replicates): 1.001 and 1.097
- RPPA p38.MAPK._pT180_Y182.R.V (single replicates): 0.866 and 2.597 and 1.276
- RPPA p38.a.M.V (single replicates): 1.063 and 0.940 and 0.948
- RPPA p44.42.MAPK.R.V (single replicates): 1.135 and 1.025 and 0.778
- RPPA p53.R.C (single replicates): 0.836 and 1.157 and 1.162
- RPPA p70.S6K1.R.V (single replicates): 1.053 and 0.972
- RPPA p70.S6K_pT389.R.V (single replicates): 0.923 and 1.455 and 1.050
- RPPA p90RSK_pT573.R.C (single replicates): 1.055 and 0.692
- RPPA DNMT1.R.V (single samples): 0.942 and 1.005
- RPPA DRP1.R.V (single samples): 1.048 and 0.924 and 1.058
- RPPA DUSP4.R.V (single samples): 1.207
- RPPA DUSP6.R.C (single samples): 1.757
- RPPA DYRK1B.R.C (single samples): 1.023 and 0.961 and 1.055
- RPPA Dvl3.R.V (single samples): 0.942 and 1.023 and 1.077
- RPPA E2F1.R.V (single samples): 0.971 and 1.007 and 0.906
- RPPA E.Cadherin.R.V (single samples): 0.967 and 0.935 and 0.968
- RPPA EGFR.R.V (single samples): 0.950 and 1.055 and 0.936
